Measured values from patent EP0658547B1, “N-pyrazolyl carbamate derivative, agricultural/horticultural fungicide containing the same as active ingredient and production intermediate thereof” (MITSUBISHI CHEMICAL CORPORATION, priority 1993, dated 1995).

Assays:
Puccinia recondita = test: Preventive activity on wheat brown rust (foliar application, spray inoculation); assay type: in vivo; conditions: 200 ppm active ingredient, wettable powder, foliar application on wheat plants (var. Norin No. 61), moist chamber 22°C 15 hours, then 7 days
Protocol: Test Example 2 Preventive activity on wheat brown Wettable powders prepared according to the same manner as that described in Formulation Example 1 were diluted with water to the predetermined concentration and then applied by foliar application on wheat plants (var. Norin No. 61) at the 1 to 2 leaf stage grown in pots of 6 cm in diameter at a ratio of 10 ml per one pot. After the chemical solution was air-dried, a spore suspension obtained by pulverizing the leaf of wheat infected with Puccinia recondita was spray-inoculated. After inoculation, the wheat seedling was maintained in a moist chamber at 22°C for 15 hours and was allowed to stand on a water tank in a green house for 7 days. For evaluation, the diseased area ratio of each leaf was measured and the preventive value was calculated from the following equation: The preventive value (%) = (average diseased area ratio in untreated plot) (- (average diseased area ratio in treated plot))/((average diseased area ratio in untreated plot))x 100 [formula]

Erysiphe graminis = test: Preventive activity on wheat powdery mildew (foliar application, spray inoculation); assay type: in vivo; conditions: 200 ppm active ingredient, wettable powder, foliar application on wheat plants (var. Norin No. 61), 7 to 10 days after inoculation
Protocol: Test Example 1 Preventive activity on wheat powdery mildow
Wettable powders prepared according to the same manner as that described in Formulation Example 1 were diluted with water to the predetermined concentration and then applied by foliar application on wheat plants (var. Norin No. 61) at the 1 to 2 leaf stage grown in pots of 6 cm in diameter at a ratio of 10 ml per one pot. After the chemical solution was air-dried, a spore suspension obtained from the leaf of wheat infected with Erysiphe graminis was spray-inoculated. After inoculation, the seedling of wheat was allowed to stand at room temperature for 7 to 10 days.
For evaluation, the diseased area ratio of each leaf was measured and the preventive value was calculated from the following equation: The preventive value (%) = (average diseased area ratio in untreated plot) (- (average diseased area ratio in treated plot))/((average diseased area ratio in untreated plot))x 100 [formula]
The test compound No. cited in the Table 2 corresponds to the compound No. of Table 1.

COC(=O)Nc1c(OCc2cc(C)ccc2C)c(C)nn1C [compound No. 48, methyl N-{1,3-dimethyl-4-(2,5-dimethylbenzyloxy)pyrazole-5-yl} carbamate]
Preventive value 2 (%) (Puccinia recondita): 86% | Preventive value 1 (%) (Erysiphe graminis): 93%

C#CCN(C(=O)OC)c1c(OCc2cc(C)ccc2C)c(C)nn1C [compound No. 50, methyl N-{1,3-dimethyl-4-(2,5-dimethylbenzyloxy)pyrazole-5-yl}-N-propargyl-carbamate]
Preventive value 2 (%) (Puccinia recondita): 100% | Preventive value 1 (%) (Erysiphe graminis): 100%

C#CCN(C(=O)OC)c1c(CON=C(C)c2ccc(C(F)(F)F)cc2)c(C)nn1C [compound No. 169, methyl N-[1,3-dimethyl-4-{(α-methyl-4-trifluoromethyl-benzylidene)aminooxymethylpyrazole-5-yl}]-N-propargyl-carbamate]
Preventive value 2 (%) (Puccinia recondita): 100% | Preventive value 1 (%) (Erysiphe graminis): 100%
